According to article PMC9607427, “Novel 7-Chloro-(4-thioalkylquinoline) Derivatives: Synthesis and Antiproliferative Activity through Inducing Apoptosis and DNA/RNA Damage” (Pharmaceuticals, 2022):

How the values were obtained:
[1] = system: MRC-5 (noncancerous human lung fibroblasts); assay: Cytotoxic MTS assay, MRC-5; format: cell-based
Method in brief: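 MTS, 72 h exposure, 37 °C/5% CO2; 4-fold serial dilutions added at t0; OD490 after 1–4 h MTS; IC50 = 50% growth inhibition; technical duplicates, ≥3 biological replicates.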

CCRF-CEM lymphoblasts = assay: BrU incorporation analysis (RNA synthesis); format: cell-based, human; conditions: 24 h
Protocol: The effect of compounds on cell cycle distribution was determined to gain insights into the mechanism of its antiproliferative activity. […] For example, as compared with control, the percentage of cells in G2/M phases was increased by treatment with 5 × IC50 μM of compounds for 24 h (Table 4). […] As shown in (Table 4), there was a marked increase in the sub-G1 from 2.91 in untreated cells. 5-Bromo-2-deoxyuridine (BrDU) is incorporated into newly synthesized DNA, and 5-bromouridine (BrU) pulse labeling is therefore commonly used as a proliferation marker. Low BrDU and BrU incorporation into the DNA or RNA, respectively, of treated cells with all compounds at 5 × IC50 reflected inhibition of DNA and RNA synthesis, indicating irreversible apoptotic changes. The percentage of […] cells incorporating 5-bromouridine is proportional to the transcriptional activity of CCRF-CEM cells. Cells were cultured and treated as described above. Before harvesting, pulse-labeling with 1 mM BrU for 30 min followed. The cells were then fixed in 1% buffered paraformaldehyde with 0.05% NP-40 at rt for 15 min, and then stored at 4 °C overnight. Before measurement, they were washed with 1% glycine in PBS, washed with PBS again and stained with primary anti-BrDU antibody cross-reacting to BrU (Exbio) for 30 min at rt in the dark. From this point, the experiment was performed exactly as in the previous method.

[2] = 5 × IC50 (second value of cell)

SMILES	IC50 [1] [µM]	RNA Synthesis (% positive of cells) (CCRF-CEM lymphoblasts; 1 × IC50 (first value of cell)) [%]	RNA Synthesis (% positive of cells) (CCRF-CEM lymphoblasts; [2]) [%]
COc1ccc(C(=O)OCCS(=O)(=O)c2cc[n+]([O-])c3cc(Cl)ccc23)cc1 [Compound 63, 2-[(N-Oxide 7-chloroquinolin-4-yl)sulfonyl]ethyl-4-methoxybenzoate]	4	35.01	2.79
COc1ccc(OC)c(C(=O)OCCS(=O)(=O)c2cc[n+]([O-])c3cc(Cl)ccc23)c1 [Compound 65, 2-[(N-Oxide 7-chloroquinolin-4-yl)sulfonyl]ethyl-2,5-dimethoxybenzoate]	4.95	36.04	24.95
COc1cc(OC)c(C(=O)OCCS(=O)(=O)c2cc[n+]([O-])c3cc(Cl)ccc23)cc1OC [Compound 66, 2-[(N-Oxide 7-chloroquinolin-4-yl)sulfonyl]ethyl-2,4,5-trimethoxybenzoate]	5.07	29.44	3.05
COc1ccccc1C(=O)OCCS(=O)(=O)c1cc[n+]([O-])c2cc(Cl)ccc12 [Compound 68, 2-[(N-Oxide 7-chloroquinolin-4-yl)sulfonyl]ethyl-2-methoxybenzoate]	4.92	37.4	3.8
COc1ccc(C(=O)OCCS(=O)(=O)c2cc[n+]([O-])c3cc(Cl)ccc23)cc1[N+](=O)[O-] [Compound 69, 2-[(N-Oxide 7-chloroquinolin-4-yl)sulfonyl]ethyl-4-methoxy-3-nitrobenzoate]	8.41	31.54	2.64
Cc1ccc([N+](=O)[O-])c(C(=O)OCCS(=O)(=O)c2cc[n+]([O-])c3cc(Cl)ccc23)c1 [Compound 70, 2-[(N-Oxide 7-chloroquinolin-4-yl)sulfonyl]ethyl-5-methyl-2-nitrobenzoate]	22.9	35.28	2.88
O=C(OCCS(=O)(=O)c1cc[n+]([O-])c2cc(Cl)ccc12)c1ccc(C(F)(F)F)cc1 [Compound 72, 2-[(N-Oxide 7-chloroquinolin-4-yl)sulfonyl]ethyl-4-(trifluoromethyl)benzoate]	24.4	21.64	2.19
